Results on 1 molecule are retold here after US10709745B2, “Tropic cell based virotherapy for the treatment of cancer” (priority 2013, dated 2020).

Like-named read-outs stand apart in the source and are kept apart here.

The test system of experiment [1] is U251. Description: Glioma cell viability (MTT) under XRT-TMZ with or without CRAd-S-pk7. It counts as cell-based, human. The conditions noted are these: for IC50: Homo sapiens, U-251. The method, then: FIGS. 42A and 42B illustrate antitumor effects of CRAd-Survivin-pk7 (CRAd-S-pk7)-loaded NSCs and their combination with XRT-TMZ against glioma cell lines in vitro according to one embodiment. (FIG. 42A): Cytotoxicity of patient-derived GBM43 tumor cells 96 hours after coculture with CRAd-S-pk7-loaded NSCs at the NSC to GBM43 cell ratios of 1:0, 1:2, 1:5, 1:10, or 1:50. Top: Representative light microscope pictures of GBM43 viability. Bottom: Mean luciferase intensity values represented as the percentages of viable glioma cells compared with control. (FIG. 42B): U251 and U87 glioma cell viability measured by 3-(4,5-dimethylthiazol-2-yl)-2,5-diphenyltetrazolium bromide at 96 hours after treatment. The addition of CRAd-S-pk7 (50 infectious units) to conventional XRT-TMZ therapy reduced the percentage of glioma cell viability in both tested cell lines. […] Abbreviations: NSC, neural stem cell; OV, oncolytic virus; TMZ, temozolomide; XRT, radiation therapy.
(§1) FIGS. 44A and 44B show the optimization of combination therapy in vitro according to one embodiment. (FIG. 44A): Cytotoxicity of U251 and U87 glioma cell lines and GBM39 patient-derived cell line treated with Rx-OV or OV-Rx. Left: The percentage of viability of glioma cells measured by 3-(4,5-dimethylthiazol-2-yl)-2,5-diphenyltetrazolium bromide 96 hours after treatment. Right: Representative light microscope pictures of U87 glioma cell viability (magnification, ×10). (FIG. 44B): Percentage of apoptotic GBM43 cells at 48 hours after treatment with Rx-OV or OV-Rx treatment protocols as measured by the expression of active caspase-3-positive tumor cells by FACS (bottom). Top: Representative FACS plots. *, p<0.05; **, p<0.01; ***, p<0.001. Abbreviations: DMSO, dimethyl sulfoxide; OV-Rx, ionizing radiation-temozolomide therapy 24 hours after oncolytic virus; PE, phycoerythrin; Rx-OV, oncolytic virus 24 hours after ionizing radiation-temozolomide therapy.
(§2) For all studies, the cells and mice received XRT in accordance with the University of Chicago's radiation safety guidelines and protocols. All cells received a single dose of 2 Gy XRT. For animal studies, 10 Gy fractioned dose radiotherapy (2 Gy for 5 consecutive days) was used. The animals were irradiated with a lead cover shielding their entire body, with only their heads exposed. […] For in vivo studies, the mice received 2.5, 5, 10, or 30 mg/kg TMZ via intraperitoneal injection.
A green fluorescent protein (GFP) expressing HB1.F3-CD cell line was generated as described elsewhere (Ahmed et al. 2011a). GBM43-Fluc cells were plated in 12-well plates and cocultured with HB1.F3-CDGFP cells loaded with CRAd-S-pk7 in the following NSC to glioma cell ratios: 1:0, 1:2, 1:5, 1:10, and 1:50. After 96 hours, the cells were collected, lysed with reporter lysis buffer (Promega, Madison, Wis., http://www.promega.com), and added to luciferase assay reagent (Promega) according to the manufacturer's protocol. Following lysate preparation, the mean fluorescence intensity (MFI) was estimated for each group of cocultured cells using the GloMax 20/20 Luminometer (Promega). The mean luciferase intensity values were represented as the percentage of cells viable compared with mock cells. U251, U87, and GBM39 cell viability was determined using 3-(4,5-dimethylthiazol-2-yl)-2,5-diphenyltetrazolium bromide (MTT) cell proliferation kit (Roche Diagnostics, Mannheim, Germany, http://www.roche-applied-science.com). The viability was subsequently determined by MTT as described by the manufacturer's protocol. Cell viability was expressed as the percentage of cells alive compared with the dimethyl sulfoxide-treated control.
Next, it was tested whether CRAd-S-pk7 could enhance the therapeutic efficacy of conventional XRT-TMZ. U251 or U87 glioma cells were treated with conventional therapy consisting of 2 Gy XRT and varying concentrations of TMZ (0-1×10^3 µM) or conventional treatment plus 50 IU of CRAd-S-pk7, and cell viability was measured by MTT at 96 hours. […]

Experiment [2] has as its system U87MG intracranial glioma xenografts. Description: U87MG intracranial xenograft, TMZ and CRAd-S-pk7 combination survival. The format is in vivo, mice. The method, then:
FIGS. 11A, 11B and 11C show in vivo anti-tumor activity of CRAd-S-pk7 in combination with TMZ according to one embodiment. (FIG. 11A) Five consecutive injections of TMZ at 70 mg/kg/day (▾) achieve 100% survival for 80 days post U87MG implantation, whereas 5 TMZ injections at 10 mg/kg/day (∘) had significant increase in survival compared to mock treatment ( )(p<0.05).
Because temozolomide (TMZ) is the standard of care for patients with GBM, the efficacy of TMZ and CRAd-S-pk7 combination was evaluated in vivo in mice with U87MG intracranial (i.c.) glioma xenografts. To employ a dose that resembles the partial therapeutic effect of TMZ seen in the clinical scenario, different doses of TMZ were tested. Based on those studies, a dose of 10 mg/kg/day×5 days of intraperitoneal (i.p.) TMZ was chosen to study the efficacy of a TMZ and CRAd-S-pk7 combination treatment, since this dose led to an increase in survival but remained non-curative (FIG. 11A) (log-rank test, p<0.05). Additionally, different doses of i.c. CRAd-S-pk7 injections were tested to investigate which dose provides an increase in survival that could be further enhanced by the addition of co-adjuvant TMZ. A dose of 3×10^9 vp/mouse×2 injections of CRAd-S-pk7 was chosen for testing the therapeutic effects of TMZ+CRAd-S-pk7 combination, since it led to a partial efficacy that could be further enhanced (FIG. 11B) (log-rank test p<0.05).
Based on the above findings, the combination of TMZ and CRAd-S-pk7 was tested for efficacy in terms of survival (FIG. 11C). The combination of TMZ (10 mg/kg/day×5) plus two i.c. injections of CRAd-S-pk7 3×10^9 vp/mouse led to a 90% of long term survivors (>90 days) (LTS). […] Consistent with the finding of an additive cytotoxic effect of TMZ and CRAd-S-pk7 in vitro experiments, this treatment combination led to an improved survival in mice bearing intracranial human glioma xenografts.

Experiment [3] concerns GBM43. Nature of the experiment: TMZ IC50 with simultaneous XRT. It counts as cell-based. The note with it: Homo sapiens; treated with XRT (2 Gy) simultaneously. On the procedure: as §2
Experiment [4] concerns GBM39. Nature of the experiment: Glioma cell viability (MTT) under XRT-TMZ with or without CRAd-S-pk7. The format is cell-based. The note with it: Homo sapiens, treated with XRT (2 Gy) simultaneously. The method, then:
as §1, with “Top: Representative FACS plots. *, p<0.05; **, p<0.01; ***, p<0.001. Abbreviations: DMSO, dimethyl sulfoxide; OV-Rx, ionizing radiation-temozolomide therapy 24 hours after oncolytic virus; PE, phycoerythrin; Rx-OV, oncolytic virus 24 hours after ionizing radiation-temozolomide therapy.” left out
A green fluorescent protein (GFP) expressing HB1.F3-CD cell line was generated as described elsewhere (Ahmed et al. 2011a). […] Following lysate preparation, the mean fluorescence intensity (MFI) was estimated for each group of cocultured cells using the GloMax 20/20 Luminometer (Promega). […] U251, U87, and GBM39 cell viability was determined using 3-(4,5-dimethylthiazol-2-yl)-2,5-diphenyltetrazolium bromide (MTT) cell proliferation kit (Roche Diagnostics, Mannheim, Germany, http://www.roche-applied-science.com). The viability was subsequently determined by MTT as described by the manufacturer's protocol. Cell viability was expressed as the percentage of cells alive compared with the dimethyl sulfoxide-treated control. […]

`Cn1nnc2c(C(N)=O)ncn2c1=O` [TMZ, temozolomide]: the IC50 (in general, the midpoint of a concentration-inhibition curve) in experiment [1] (2 Gy XRT plus 50 IU of CRAd-S-pk7, MTT 96 hours, read-out: IC50 values for TMZ) worked out at 13 µM; in experiment [1] (treated with XRT (2 Gy) simultaneously, read-out: IC50) it was 44 µM; in experiment [3], 37 µM; in experiment [4] it was 50 µM. The “decrease of TMZ IC50 when OV was added” value in experiment [1] (XRT-TMZ) was found to be 31 µM. For the same molecule, the median survival in experiment [2] (TMZ 10 mg/kg/day×5 alone or CRAd-S-pk7 3×10^9 vp/mouse×2 alone) is 51 days. The “long term survivors (>90 days) (LTS)” value in experiment [2] (TMZ 10 mg/kg/day×5 i.p., CRAd-S-pk7 3×10^9 vp/mouse×2 i.c., alone or combined) amounted to 7%. The “survival for 80 days post U87MG implantation” value in experiment [2] (TMZ 70 mg/kg/day, five consecutive injections) was found to be 100%.
